Data published in patent publication US4424342A, “Anthracycline antibiotic compounds” (priority 1981, dated 1984).
In brackets after ≈: the same amount, converted by molar mass. Entries after “also recorded” stand apart in the source; their conditions may differ. Like-named read-outs stand apart in the source and are kept apart here.

Columns and labels:
L1210 leukemia cells = experiment: Growth inhibition of L1210 leukemia culture cells in vitro; format: cell-based, mouse; conditions: for IC50: Mus musculus
Method: (§1) The 50% inhibitory concentration of trisarubicinol on L1210 leukemia cells was calculated by culturing 5×10^4 cells/ml at 37° C. in 5% CO2 -air in 20% calf serum-supplemented RPMI 1640 medium (Roswell Park Memorial Institute 1640 medium) containing none (control), 0.01 and 0.05 μg/ml of trisarubicinol. In addition. the inhibitory effect of the new anthracycline compound on nucleic acid synthesis was examined as follows: after 5×10^5 cells/ml of L1210 leukemia cells were preincubated in 5% CO2 -air at 37° C. for 1-2 hours in RPMI medium containing 10% calf serum, varied concentrations of trisarubicinol were added and incubated for 15 minutes under the same conditions. Then 0.05 μCi/ml each of ^14 C-uridine or ^14 C-thymidine was added to the cell suspensions and the mixtures were incubated at 37° C. for a further 60 minutes. At the end of incubation, cold 10% trichloroacetic acid was added to stop the incorporation of the radio-labelled compound. The acid-insoluble fractions were collected by centrifugation; rinsed three times with 5% trichloroacetic acid; and dissolved in formic acid for radiometry. The 50% inhibitory concentration of the new anthracycline compound was calculated from the radiometric data of the acid-insoluble fractions of the control and test reaction mixtures.

[1] = tested on: L1210 leukemia cells, DNA synthesis; experiment: DNA synthesis inhibition in L1210 leukemia culture cells (14C-thymidine incorporation); format: cell-based; conditions: Mus musculus
Method: as §1

[2] = tested on: L1210 leukemia cells, RNA synthesis; experiment: RNA synthesis inhibition in L1210 leukemia culture cells (14C-uridine incorporation); format: cell-based, mouse; conditions: for IC50: Mus musculus
Method: as §1

L1210 mouse leukemia = experiment: In vivo activity on L1210 mouse leukemia, prolongation of survival time; set-up: species or system mouse (CDF1 mice); conditions: for prolongation of survival time (T/C): i.p. every day for 10 days, CDF1 mice
Method: The therapeutic effect of trisarubicinol was examined by calculating the prolongation of the survival time of treated animals relative to untreated ones (receiving physiological saline). In practice, 1×10^5 mouse leukemia cells each were intraperitoneally transplanted into CDF1 mice and varied doses of trisarubicinol were intraperitoneally injected every day for 10 days from 24 hours after cell transplantation.

Acute toxicity = format: in vivo
[3] = tested on: various experimental tumors in animals; experiment: Antitumor activity on various experimental tumors in animals; conditions: in vivo

SMILES	IC50 (L1210 leukemia cells; L1210 culture cells, 5×10^4 cells/ml, 37° C., 20% calf serum-supplemented RPMI 1640, read-out: 50% inhibitory concentration (IC50), cell growth inhibition) [µg/mL]	IC50 ([1]; L1210 culture cells, 15 min with compound, then 60 min with 14C-thymidine, read-out: 50% inhibitory concentration (IC50), DNA synthesis inhibition) [µg/mL]	IC50 ([2]; L1210 culture cells, 15 min with compound, then 60 min with 14C-uridine, read-out: 50% inhibitory concentration (IC50), RNA synthesis inhibition) [µg/mL]	growth inhibition of L1210 cells (in words) (L1210 leukemia cells; L1210 cultured cells / at low doses)	IC50 (L1210 leukemia cells; L1210, read-out: 50% inhibitory concentration (IC50), cell growth inhibition) [µg/mL]	antitumor activity compared with carminomycin I (in words) (L1210 leukemia cells; versus carminomycin I, L1210)	IC50 ([1]; L1210, read-out: 50% inhibitory concentration (IC50), DNA synthesis inhibition) [µg/mL]	IC50 ([2]; L1210, read-out: 50% inhibitory concentration (IC50), RNA synthesis inhibition) [µg/mL]	RNA synthesis inhibition compared with carminomycin I (in words) ([2]; at very low concentrations, versus carminomycin I)	effect on survival time of leukemia cells-holding mice / therapeutic effect (in words) (L1210 mouse leukemia; L1210 mouse leukemia)	prolongation of survival time (T/C) (L1210 mouse leukemia; dose 0.63 (head prints "%")) [%]	prolongation of survival time (T/C) (L1210 mouse leukemia; dose 1.25 (head prints "%")) [%]	prolongation of survival time (T/C) (L1210 mouse leukemia; dose 2.5 (head prints "%")) [%]	prolongation of survival time (T/C) (L1210 mouse leukemia; dose 5.0 (head prints "%")) [%]	prolongation of survival time (T/C) (L1210 mouse leukemia; dose 7.5 (head prints "%")) [%]	prolongation of survival time (T/C) (L1210 mouse leukemia; dose 10 (head prints "%")) [%]	LD50 (Acute toxicity; in vivo, ip) [mg/kg]	toxicity (in words) (Acute toxicity; relative to carminomycin I, general statement)	antitumor activity on various experimental tumors in animals (in words) [3]
CC(=O)[C@]1(O)Cc2c(O)c3c(c(O)c2[C@@H](O[C@H]2C[C@H](N)[C@H](O)[C@H](C)O2)C1)C(=O)c1c(O)cccc1C3=O [carminomycin I, reference compound]	0.01 (≈ 0.0195 µM)	0.2 (≈ 0.389 µM)	0.29 (≈ 0.565 µM)																
CC(O)C1(O)Cc2c(O)c3c(c(O)c2C(O[C@H]2C[C@H](N(C)C)[C@H](O[C@H]4C[C@H](O)[C@H](O[C@H]5CCC(=O)[C@H](C)O5)[C@H](C)O4)[C@H](C)O2)C1)C(=O)c1c(O)cccc1C3=O (stereo partly shown) [trisarubicinol]				markedly inhibits the growth and nucleic acid synthesis in cultured cells of mouse leukemia (L1210); also recorded: significantly inhibits the growth of L1210 mouse leukemia cells at low doses	0.01 (≈ 0.0127 µM)	same or better antitumor activity	0.38 (≈ 0.484 µM)	0.06 (≈ 0.0764 µM)	better inhibition of RNA synthesis at very low concentrations	marked prolonging effect on the survival time of leukemia cells-holding mice; also recorded: strong therapeutic effect on mouse leukemia (L1210)	122	124	159	216	243	131	40 to 50	less toxic than carminomycin I; also recorded: unique low toxicity	excellent antitumor activity on various experimental tumors in animals
